Results as given in article PMC6091245, “Genome-Wide Identification and Expression Analysis of Cutinase Gene Family in Rhizoctonia cerealis and Functional Study of an Active Cutinase RcCUT1 in the Fungal–Wheat Interaction” (Frontiers in Microbiology, 2018).

Target: T1, RcCUT1 (MBP-RcCUT1) (Ceratobasidium cereale, UniProt A0A346Q044)
T1 construct: E. coli BL21 (DE3); amylose resin; about 63 kDa on SDS-PAGE
Assay: spectrophotometric p-nitrophenol release at […] nm
Assay type: biochemical
Details: 1 mM substrate; 20 mM Tris-HCl, 10 mM NaCl, 50 mM sodium taurodeoxycholate, pH 8.0, 20 °C; MBP-tag alone inactive

T1 sequence (A0A346Q044 entry or part of it): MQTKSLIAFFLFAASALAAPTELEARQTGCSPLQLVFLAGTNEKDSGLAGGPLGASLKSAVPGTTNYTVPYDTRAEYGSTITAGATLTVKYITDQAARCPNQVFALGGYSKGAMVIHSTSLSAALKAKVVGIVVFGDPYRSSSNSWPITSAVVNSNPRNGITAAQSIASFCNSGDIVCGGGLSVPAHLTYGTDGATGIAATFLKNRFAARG

CCCC(=O)Oc1ccc([N+](=O)[O-])cc1 [p-nitrophenyl butyrate]
spectrophotometric p-nitrophenol release at 405 nm: the purified MBP-RcCUT1 had the enzymatic activity for hydrolyzing pNPB substrate
